Data from patent US12440466B2, “Fatty acid derivatives for treating non-alcoholic steatohepatitis” (BASF AS, priority 2017, dated 2025).
Marks after values point to notes of the source that are not given here.

How the values were obtained:
CDAA/high-fat fed mice [1] = test: Hepatic collagen fiber number, thickness and length by nonlinear multiphoton optical imaging, CDAA/high-fat diet mouse model; type: in vivo; details: Compound A 56 mg/kg bw per day orally
Procedure: (§1) Mice were fed either choline-sufficient (CS) or choline deficient high-fat diets (31% total calories; “CDAA/high-fat”). The NASH inducing diet was instigated 6 weeks prior to the commencement of treatment in order to design the study as a treatment/reversal set-up rather than prophylaxis.
In Biological Examples 6 and 7, mice were fed either CS or CDAA/high-fat diets as described above. […] The effect on hepatic collagen fiber number, thickness, and length was determined via nonlinear multiphoton optical imaging system in isolated liver samples from vehicle control (n=8), Compound A (n=9) and GLP-1R (n=8) fed groups.

CDAA/high-fat fed mice [2] = test: Hepatic fibrosis by Sirius Red (SR) morphometry, CDAA/high-fat diet mouse model; type: in vivo
Procedure: In Biological Examples 1-7, studies were performed in male C56BL/6J mice (9 weeks old). Mice were fed either choline-sufficient (CS) or choline deficient high-fat diets (31% total calories; “CDAA/high-fat”). The NASH inducing diet was instigated 6 weeks prior to the commencement of treatment in order to design the study as a treatment/reversal set-up rather than prophylaxis.
In Biological Examples 1-5, mice were divided into 6 experimental groups (n=9 per group) and fed either CS or CDAA/high-fat diets. […] Hepatic fibrosis was assessed by both measurement of hydroxyproline (HYP) content and Sirius Red (SR) morphometry. Fibrosis, inflammation and metabolism related transcripts levels were measured by quantitative real-time polymerase chain reaction (qPCR).
In order to more accurately quantify the amount location and functional relevance of the hepatic fibrosis, Sirius Red (SR) morphometry was performed. In contrast to examples 1 and 2 where biochemical assessment of hydroxyproline (HYP) content measuring collagen in the large vessels was used, SR morphometry quantifies the more functionally relevant sinusoidal collagen deposits. 10 areas per slide were measured using 100× magnification.

Col1a1 mRNA = test: Hepatic Col1a1 mRNA expression by qPCR, CDAA/high-fat diet mouse model; type: in vivo; details: CDAA/high-fat fed mice
Excerpt: as §1
After 6 weeks of either the CS- or CDAA diet, mice were orally administered Compound A or comparison Compound N, both at 2 doses, 0.15 mmol/kg bw/day (low-dose, LD) and 0.3 mmol/kg bw per day (high-dose, HD). The test substances were administered orally as admix to the high-fat diet. Hepatic fibrosis was assessed by both measurement of hydroxyproline (HYP) content and Sirius Red (SR) morphometry. Fibrosis, inflammation and metabolism related transcripts levels were measured by quantitative real-time polymerase chain reaction (qPCR).
Studies were performed in male C56BL/6J mice (9 weeks old). Mice were divided into 6 experimental groups (n=9 per group) containing either CS or CDAA/high-fat diets, as described above. The NASH inducing CDAA/high fat diet was instigated 6 weeks prior to the commencement of treatment in order to assess treatment/reversal rather than prophylaxis. […] Compound A was administered orally as admix to the high-fat diet whilst GLP-1 agonist was delivered via intraperitoneal injection (i.p.). Fibrosis, inflammation and metabolism related transcripts levels were measured by quantitative real-time polymerase chain reaction (qPCR) in isolated liver tissue.

[3] = system: genes regulating extracellular matrix (ECM) stability or fibrolysis; test: Hepatic ECM stability/fibrolysis gene expression by RNA sequencing in ob/ob AMLN mice; type: in vivo, mouse; details: 4 weeks, Compound A 112 mg/kg, pioglitazone 30 mg/kg
Procedure: Obese diet-induced B6.V-Lepob/Jrj mice (ob/ob) are consistently fibrosis (liver) prone when cholesterol (2%), 40% fat (containing 18% trans-fatty acids) and 20% fructose are added to a high-caloric diet (i.e., AMLN high-fat diet). ob/ob mice on AMLN diet (termed ‘ob/ob AMLN mice’) develop steatohepatitis and fibrosis within a shorter timeframe ([…]) compared with wild-type C57BL/6 mice (AMLN mice) fed the same diet. ob/ob AMLN mice provide an obese diet-induced model of NASH that also allows the study of effects on glycemic control. Development of NASH in the ob/ob AMLN model is confirmed by biopsy.
In Biological Examples 10-12, 15, and 19, studies were performed in male ob/ob mice (5 weeks old) fed an AMLN high-fat diet for 15 weeks, then randomized into 3 groups (n=10 per group) to receive either 112 mg/kg bw per day of Compound A via diet, 30 mg/kg bw per day pioglitazone via diet or no treatment (vehicle) for a further 4 weeks. An oral glucose tolerance test (OGTT) was performed at week 3. Hepatic fibrosis was assessed via measurements of hepatic fibrogenic/fibrolytic gene expression by RNA sequencing at 4 weeks.

CC/C=C\C/C=C\C/C=C\C/C=C\C/C=C\CCCCOC(CC)C(=O)O (stereo not shown) [Compound A, 2-((5Z,8Z,11Z,14Z,17Z)-icosa-5,8,11,14,17-pentaenyloxy)butanoic acid]
collagen fiber length (CDAA/high-fat fed mice [1]): slight increases
collagen fiber thickness (CDAA/high-fat fed mice [1]): slight increases
short (<8.5 μm) and thin (<3.5 μm) collagen fibers (CDAA/high-fat fed mice [1]): almost complete disappearance
reduction of collagen fiber numbers (CDAA/high-fat fed mice [1]; p=0.01): 51%
Fibrosis area (mean %) (CDAA/high-fat fed mice [2]; HD 0.3 mmol/kg bw per day): 1.56* %
Fibrosis area (mean %) (CDAA/high-fat fed mice [2]; LD 0.15 mmol/kg bw/day): 0.76*** %
Col1a1 (relative mRNA expression) (Col1a1 mRNA; Compound A 0.3 mmol/kg bw/day oral, GLP-1a 0.4 mg/kg once weekly i.p., alone or combined): 6.2***
Col1a1 (relative mRNA expression) (Col1a1 mRNA; HD 0.3 mmol/kg bw per day): 6***
Col1a1 (relative mRNA expression) (Col1a1 mRNA; LD 0.15 mmol/kg bw/day): 10***
hepatic expression of LOX-like 2 (LOXL2) [3]: significantly reduced
hepatic expression of LOXL1 [3]: significantly reduced
hepatic expression of TIMP1 [3]: significantly reduced
hepatic expression of lysyl-oxidase (LOX) [3]: significantly reduced
